From patent US20220289732A1, “HETEROCYCLIC WDR5 INHIBITORS AS ANTI-CANCER COMPOUNDS” (NOVARTIS AG, priority 2019, published 2022)

Experiments:
[1] = biological target: WDR5 (Homo sapiens, UniProt P61964); assay: WDR5 HTRF binding assay; settings: read-out: (a) WDR5 HTRF Pep Val v.1[Inhibitor/IC50]Qualified AC50
Procedure: The compounds were serially diluted 3-fold in DMSO to obtain a total of twelve concentrations. Then the test compounds at each concentration (90 nL of each) were transferred by Mosquito in the white Proxiplate plus 384-well microplate (Perkin Elmer). The assay mixture (typical 9 μL) containing 6 nM WDR5 and 20 nM Biotin-MLL1 WIN peptide (3762-3773) in the assay buffer (25 mM Hepes, pH7.5, 0.05% Tween 20, 2 mM DTT, 100 mM NaCl, 0.1% BSA) were added to the wells. For counter assay, a 9 μL solution of 15 nM Biotin-PEG-His peptide was added into the wells. After 20 min incubation at rt, a 3 μL detection solution containing 14 μg/ml Phycolink Streptavidin Allophycocyanin (Prozyme), 2 nM Anti-His-Eu (PerkinElmer) in assay buffer was then added. After 1 hr incubation, the plate was read in the EnVision reader (PerkinElmer) using the HTRF protocol (The protocol set-up: Lance/Delfia dual enhancer mirror, excitation at 320 UV2 (TRF), emission at APC665, 2nd emission at EuropiμM 615). HTRF signals were normalized based on the reading coming from the positive (maximum signal control) and negative controls (minimum signal control) to give percentage of activities left. The data were then fit to a dose response equation using the program Helios (Novartis) to get the IC50 values. Helios is a Novartis in-house assay data analysis software using the methods described by Normolle, D. P., Statistics in Medicine, 12:2025-2042 (1993); Formenko, I. et al., Computer Methods and programs in Biomedicine, 82, 31-37 (2006); Sebaugh, J. L., Pharmaceutical Statistics, 10:128-134 (2011); Kelly, C. et al., Biometrics, 46(4):1071-1085 (1990); and Kahm, M, et al., Journal of Statistical Software, 33(7):(2010) (grofit: Fitting Biological Growth Curves with R, pages 1-21, available at http://www.jstatsoft.org/).

[2] = biological target: wild type MLL1 four-member complex (MLL1-4C) (Homo sapiens, UniProt P61964); assay: MLL1 LC-MS assay (SAH production); type: biochemical; settings: read-out: (b) MLL LCMS Peptide Val.v.1 Qualified AC50
Procedure: The compounds of the present disclosure were serially and separately diluted 3-fold in DMSO to obtain a total of eight or twelve concentrations. Then the test compounds at each concentration (120 nL of each) were transferred by Mosquito into white Proxiplate plus 384-well microplate (PerkinElmer). Solutions (6 μL) of 60 nM wild type MLL1 four-member complex (MLL1-4C) and 5 μM SAM in the reaction buffer (20 mM Tris-HCl, pH8.0, 0.01% Tween 20, 1 mM DTT, 10 mM MgCl2, 0.01% BSA) were added to the wells that were then incubated with the test compound for 20 min. A 6 μL solution of 20 μM of the peptide substrate H3K4me0 (histone H3[1-21]-Biotin) in the reaction buffer was added to initiate each reaction. The final components in the reaction solution include 30 nM MLL1-4C, 2.5 μM SAM, and 10 μM H3K4me0 with varying concentration of the compounds. A positive control consisted of 30 nM MLL1-4C, 2.5 μM SAM, and 10 μM substrate in the absence of the test compound, and a negative control consisted of 2.5 μM SAM, and 10 μM substrate only. Each reaction was incubated at rt for 120 min, then stopped by addition of 3 μL per of quench solution (2.5% TFA with 320 nM d4-SAH). The reaction mixture was centrifuged (Eppendorf centrifuge 5810, Rotor A-4-62) for 2 min at 2000 rmp. The SAH production from the enzymatic assays were monitored by LC-MS/MS on an API 4000 triple quadrupole mass spec with Turbolon Spray (Applied Biosystem) coupled with Prominenece UFLC (Shimazu). The level of SAH production were then normalized based on the values coming from the positive and negative controls to give percent enzyme activities. The data were then fit to a dose response equation using the program Helios (Novartis) to get the IC50 values of the test compound. Helios is a Novartis in-house assay data analysis software using the methods described by Normolle, D. P., Statistics in Medicine, 12:2025-2042 (1993); Formenko, I. et al., Computer Methods and programs in Biomedicine, 82, 31-37 (2006); Sebaugh, J. L., Pharmaceutical Statistics, 10:128-134 (2011); Kelly, C. et al., Biometrics, 46(4):1071-1085 (1990); and Kahm, M, et al., Journal of Statistical Software, 33(7):(2010) (grofit: Fitting Biological Growth Curves with R, pages 1-21, available at http://www.jstatsoft.org/).

[3] = tested on: MV4-11 cells; assay: MV4-11 6-day cell growth CTG (CellTiter-Glo) assay; type: cell-based; settings: Homo sapiens, MV4-11, 144 h, 6 days, read-out: (c) MLL/WDR5 cell proliferation assay//MLL/WDR5 proliferation MV4:11 Qualified AC50
Procedure: MV4-11 6-Day Cell Growth CTG (CellTiter-Glo) Assay
Acute myeloid leukemia cell MV4-11 (ATCC® CRL-9591™) was cultured with RPMI 1640 medium (Thermo Fisher Scientific, cat #11875) supplemented with 10% FBS (Thermo Fisher Scientific, cat #10099141) in humidified incubator at 37° C., 5% CO2. To assess the effect of WDR5 inhibitor on cell growth, the compound of the present invention was dissolved in DMSO and serially diluted at 1:3 for 12 points starting from 10 mM then 200 nL for the replicate of each dose per well was dispensed to Viewplate-384 Black (Perkin Elmer). Exponentially growing MV4-11 cells were seeded at the density of 300 cells per well in 40 μL to the plate, so the final compound working concentration starts from 50 μM. After 6 days, 40 μL CellTiter-Glo (Promega, cat #G7573) was added into the cell culture well and luminescence was read with Envision (Perkin Elmer) to determine the viable cells. The percentage inhibition was calculated against the samples treated with DMSO only and the data were used for dose response curve fitting in GraphPad Prism to get the IC50 of representative compound of present invention, which reflects the inhibition of WDR5 activity in the proliferation of MV4;11.

Row | SMILES | IC50 [1] | AC50 [2] | AC50 [3]
1 | CCOc1cc([C@H](C)N2CCc3c(cc(Cn4ccnc4C)cc3-c3cn(C)nc3C)C2=O)ncc1C(N)=O (single isomer, unassigned) [Example 268] | < 10 nM | 10 to 1000 nM | 10 to 1000 nM
2 | CCOc1cc([C@H](C)N2CCc3c(cc(Cn4ccnc4C)cc3-c3cc(CN(C)C)nn3C)C2=O)ncc1C#N (single isomer, unassigned) [Example 270] | < 10 nM | 10 to 1000 nM | 10 to 1000 nM
3 | CCOc1cc([C@H](C)N2CCc3c(cc(Cn4ccnc4C)cc3-c3cn(C)c(=O)cc3C(F)(F)F)C2=O)ncc1F (single isomer, unassigned) [Example 278] | < 10 nM | 10 to 1000 nM | < 10 nM
4 | CCOc1cc([C@H](C)N2CCc3c(cc(Cn4ccnc4C)cc3-c3cn(C)nc3C)C2=O)nnc1C#N (single isomer, unassigned) [Example 303] | < 10 nM | < 10 nM | < 10 nM
5 | CCOc1cc(C(C)N2CCc3c(Br)cc(Cn4ccnc4NC)cc3C2=O)ncc1C#N (stereo not drawn) [Example 1, 6-(1-(5-bromo-7-((2-(methylamino)-1H-imidazol-1-yl)methyl)-1-oxo-3,4 dihydroisoquinolin-2(1H)-yl)ethyl)-4-ethoxynicotinonitrile] | 10 to 1000 nM | 10 to 1000 nM | 10 to 1000 nM
6 | CCOc1cc(CN2CCc3c(Br)cc(Cn4ccnc4NC)cc3C2=O)cnc1C#N [Example 2, 5-((5-bromo-7-((2-(methylamino)-1H-imidazol-1-yl)methyl)-1-oxo-3,4-dihydroisoquinolin-2(1H)-yl)methyl)-3-ethoxypicolinonitrile] | 10 to 1000 nM | 10 to 1000 nM | 10 to 1000 nM
7 | CCOc1cc([C@H](C)N2CCc3c(Cl)cc(Cn4ccnc4NC)cc3C2=O)cnc1C#N [Example 4, (S)-5-(1-(5-chloro-7-((2-(methylamino)-1H-imidazol-1-yl)methyl)-1-oxo-3,4-dihydroisoquinolin-2(1H)-yl)ethyl)-3-ethoxypicolinonitrile] | 10 to 1000 nM | 10 to 1000 nM | 10 to 1000 nM
8 | CCOc1cc([C@H](C)N2CCc3c(Cl)cc(Cn4ccnc4NC)cc3C2=O)ncc1F [Example 5, (S)-5-chloro-2-(1-(4-ethoxy-5-fluoropyridin-2-yl)ethyl)-7-((2-(methylamino)-1H-imidazol-1-yl)methyl)-3,4-dihydroisoquinolin-1(2H)-one] | 10 to 1000 nM | 10 to 1000 nM | 10 to 1000 nM
9 | CCOc1cc(CN2CCc3c(Cl)cc(Cn4ccnc4NC)cc3C2=O)cnc1C#N [Example 6, 5-((5-chloro-7-((2-(methylamino)-1H-imidazol-1-yl)methyl)-1-oxo-3,4-dihydroisoquinolin-2(1H)-yl)methyl)-3-ethoxypicolinonitrile] | 10 to 1000 nM | 10 to 1000 nM | 10 to 1000 nM
10 | CNc1nccn1Cc1cc(CN2CCOCC2)c2c(c1)C(=O)N([C@@H](C)c1cnc(F)c(OC)c1)CC2 [Example 8, (S)-2-(1-(6-fluoro-5-methoxypyridin-3-yl)ethyl)-7-((2-(methylamino)-1H-imidazol-1-yl)methyl)-5-(morpholinomethyl)-3,4-dihydroisoquinolin-1(2H)-one] | < 10 nM | 10 to 1000 nM | 10 to 1000 nM
11 | CCOc1cc([C@H](C)N2CCc3c(CN4CC[C@H](F)C4)cc(Cn4ccnc4NC)cc3C2=O)ncc1C#N [Example 9, 4-ethoxy-6-((S)-1-(5-(((S)-3-fluoropyrrolidin-1-yl)methyl)-7-((2-(methylamino)-1H-imidazol-1-yl)methyl)-1-oxo-3,4-dihydroisoquinolin-2(1H)-yl)ethyl)nicotinonitrile] | < 10 nM | 10 to 1000 nM | 10 to 1000 nM
12 | CCOc1cc([C@H](C)N2CCc3c(CN(C)C4COC4)cc(Cn4ccnc4NC)cc3C2=O)ncc1F [Example 10, (S)-2-(1-(4-ethoxy-5-fluoropyridin-2-yl)ethyl)-5-((methyl(oxetan-3-yl)amino)methyl)-7-((2-(methylamino)-1H-imidazol-1-yl)methyl)-3,4-dihydroisoquinolin-1(2H)-one] | < 10 nM | 10 to 1000 nM | 10 to 1000 nM
13 | CCOc1cc([C@H](C)N2CCc3c(CN4CC[C@@H](F)C4)cc(Cn4ccnc4NC)cc3C2=O)ncc1C#N [Example 11, 4-ethoxy-6-((S)-1-(5-(((R)-3-fluoropyrrolidin-1-yl)methyl)-7-((2-(methylamino)-1H-imidazol-1-yl)methyl)-1-oxo-3,4-dihydroisoquinolin-2(1H)-yl)ethyl)nicotinonitrile] | < 10 nM | 10 to 1000 nM | 10 to 1000 nM
14 | CCOc1cc([C@H](C)N2CCc3c(CN4CCOCC4)cc(Cn4ccnc4NC)cc3C2=O)ncc1C#N [Example 12, (S)-4-ethoxy-6-(1-(7-((2-(methylamino)-1H-imidazol-1-yl)methyl)-5-(morpholinomethyl)-1-oxo-3,4-dihydroisoquinolin-2(1H)-yl)ethyl)nicotinonitrile] | 10 to 1000 nM | 10 to 1000 nM | 10 to 1000 nM
15 | CNc1nccn1Cc1cc(CN(C)C2COC2)c2c(c1)C(=O)N([C@@H](C)c1cc(OC)c(F)cn1)CC2 [Example 13] | 10 to 1000 nM | 10 to 1000 nM | 10 to 1000 nM
16 | CCOc1cc([C@H](C)N2CCc3c(CN4CC[C@@H](F)C4)cc(Cn4ccnc4NC)cc3C2=O)ncc1F [Example 14, 2-((S)-1-(4-ethoxy-5-fluoropyridin-2-yl)ethyl)-5-(((R)-3-fluoropyrrolidin-1-yl)methyl)-7-((2-(methylamino)-1H-imidazol-1-yl)methyl)-3,4-dihydroisoquinolin-1(2H)-one] | 10 to 1000 nM | 10 to 1000 nM | 10 to 1000 nM
